Structures can show the parent of a compound that is named as a salt.

The source of these data is US9951035B2, “Selective matrix metalloproteinase inhibitors” (University of Notre Dame du Lac, priority 2014, dated 2018).

The nature of this data set: Stability in buffers of the kinetic assays. Type of data set: physicochemical. The settings on record: in words. The source says: Human recombinant active MMP-2 and MMP-7, and the catalytic domains of MMP-3 and MMP-14/MT1-MMP were purchased from EMD Chemicals, Inc. (San Diego, Calif., USA); human recombinant catalytic domains of MMP-1, MMP-8, and MMP-9 were purchased from Enzo Life Sciences, Inc. (Farmingdale, N.Y., USA); human recombinant active ADAM9 and ADAM10 were purchased from R&D Systems (Minneapolis, Minn., USA). Fluorogenic substrates MOCAc-Pro-Leu-Gly-Leu-A2pr(Dnp)-Ala-Arg-NH2 (for MMP-2, MMP-7, MMP-9 and MMP-14) and MOCAc-Arg-Pro-Lys-Pro-Val-Glu-Nva-Trp-Arg-Lys(Dnp)-NH2 (for MMP-3) were purchased from Peptides International (Louisville, Ky., USA); Mca-KPLGL-Dpa-AR-NH2 (for MMP-1, MMP-8 and ADAM10) and Mca-PLAQAV-Dpa-RSSSR-NH2 (for ADAM9) were purchased from R&D Systems (Minneapolis, Minn., USA). […] Inhibitor stock solutions (10 mM) were prepared fresh in DMSO before enzyme inhibition assays. We followed the same methodology for enzyme inhibition studies as reported by Page-McCaw et al. (Nat. Rev. Mol. Cell Biol. 2007, 8, 221-233). Enzyme inhibition studies were carried out using a Cary Eclipse fluorescence spectrophotometer (Varian, Walnut Creek, Calif., USA). Compounds 4, 5, 6 and 7 were stable in the buffers that were used in the kinetic assays.

With `NCc1ccc(Oc2ccc(S(=O)(=O)CC3CS3)cc2)cc1` (stereo not shown) [Compound 5, (4-(4-((Thiiran-2-ylmethyl)sulfonyl)phenoxy)phenyl)methanamine HCl salt], the “stability in the buffers used in the kinetic assays” value was “stable”.
